“And” between values parts separate entries of the source, which are not always exact repeats. Equal values may be shown once. “Also recorded” adds a separate entry of the source. Read-outs that look alike come from different tables or passages of the source.
Key:
S. mutans UA159 = test: In vitro static biofilm inhibition assay (crystal violet), incl. dose response study; type: cell-based, Streptococcus mutans
S. sobrinus 6715 = test: In vitro static biofilm inhibition assay (crystal violet); type: cell-based, Streptococcus sobrinus; conditions: 125 μM; for inhibition of biofilm formation of S. sobrinus 6715: BHI 1% sucrose, 20 h
S. mutans [1] = type: cell-based, Streptococcus mutans
[2] = test system: all strains of bacteria tested; set-up: key to the marks not given beside the values; conditions: 1 mM-metal
Protocol: Tooth application may involve exposure to bacteria outside the oral cavity, including the skin and digestive system. CAN, CAS and AgNO3 (1 mM-metal) were tested for their effect on in vitro planktonic growth of bacteria under the conditions listed in FIG. 9.

S. mutans [3] = conditions: 500 μM, 6 h on 6 h-grown biofilm
Protocol: (§1) Potential mechanisms of biofilm inhibition by CeO2-NP were first explored by testing the effect of CAS and CAN on planktonic growth (FIG. 8). […] To further explore potential extracellular mechanisms of biofilm inhibition, dispersal assays were carried out on existing S. mutans and S. sobrinus biofilms grown statically for 6 h as described above (96-well plate, BHI, 1% sucrose). After 6 h, the planktonic cells were removed, the adherent biofilm rinsed (0.9% NaCl) and replaced with fresh 200 μL BHI (positive control) or BHI/500 μM CAS (test wells). All wells were allowed to incubate an additional 6 h after which the adherent biofilm was washed, stained and quantified via UV-Vis analysis (37). Biofilm dispersal was calculated similar to inhibition in Equation I via UV-Vis.

S. sobrinus = conditions: 500 μM, 6 h on 6 h-grown biofilm
Protocol: as §1

[4] = test system: human telomerase immortalized gingival keratinocytes; conditions: 24 h incubation, DermaLife K keratinocyte culture media, MTS assay

## N.N.O=[N+]([O-])O.O=[N+]([O-])O.O=[N+]([O-])[O-].O=[N+]([O-])[O-].O=[N+]([O-])[O-].O=[N+]([O-])[O-].[Ce+4] [CAN, ceric ammonium nitrate]
S. mutans UA159; read-out: 50% inhibitory concentration (IC50) of biofilm formation
  IC50: 137 µM

## O=[N+]([O-])[O-].[Ag+] [AgNO3, Silver Nitrate, reference compound]
S. mutans UA159
  effect on S. mutans biofilm formation (in words): slight increase in biofilm growth
S. sobrinus 6715
  effect on biofilm growth of S. sobrinus (in words): incapable of limiting biofilm growth

## O=S(=O)([O-])[O-].[Zn+2] [ZnSO4, reference compound]
S. mutans UA159; 125 μM (metal ion/Ce), BHI 1% sucrose, 37° C., 5% CO2, 20 h
  effect on S. mutans biofilm formation (in words): slight increase in biofilm growth
S. sobrinus 6715
  effect on biofilm growth of S. sobrinus (in words): incapable of limiting biofilm growth

## ceric ammonium sulfate [CAS]
S. mutans UA159; 125 μM
  inhibition of S. mutans biofilm growth: 40%
S. mutans [1]
  effect on planktonic growth of S. mutans: did not inhibit; also recorded: non-significant growth effect; also recorded: Non-inhibitory effect
[2]
  visible in vitro planktonic growth of bacteria: ++
S. mutans [3]
  biofilm dispersal, S. mutans: 6%
S. sobrinus
  biofilm dispersal, S. sobrinus: 8%
[4]
  toxicity on gingival keratinocytes as compared to AgNO3: reduced toxicity
S. sobrinus 6715
  inhibition of biofilm formation of S. sobrinus 6715: 35%

## N.N.O=S(=O)(O)O [(NH4)2SO4, ammonium sulfate, reference compound]
S. mutans [1]
  activity in limiting planktonic growth: not active

## O=[N+]([O-])[O-].O=[N+]([O-])[O-].O=[N+]([O-])[O-].O=[N+]([O-])[O-].O=[N+]([O-])[O-].O=[N+]([O-])[O-].[Ce+4].[NH4+].[NH4+] [CAN, ceric ammonium nitrate]
S. mutans UA159; 125 µM
  inhibition of S. mutans biofilm growth: 51% and ~40%
S. mutans [1]
  effect on planktonic growth of S. mutans: did not inhibit; also recorded: slight growth lag; also recorded: slight lagging effect; also recorded: Non-inhibitory effect
[2]
  visible in vitro planktonic growth of bacteria: ++
[4]
  toxicity on gingival keratinocytes as compared to AgNO3: reduced toxicity
S. sobrinus 6715
  inhibition of biofilm formation of S. sobrinus 6715: 44%

## O=[N+]([O-])[O-].O=[N+]([O-])[O-].O=[N+]([O-])[O-].[Ce+3] [Ce(NO3)3, Cerium (III) nitrate, reference compound]
S. mutans UA159
  effect on S. mutans biofilm formation (in words): slight increase in biofilm growth; also recorded: inactive
S. sobrinus 6715
  effect on biofilm growth of S. sobrinus (in words): incapable of limiting biofilm growth

Source: patent US10835556B2, “Hydrolyzed tetravalent metal salts and methods of biofilm inhibition” (THE BOARD OF TRUSTEES OF THE UNIVERSITY OF ILLINOIS, priority 2018, dated 2020)
